The target in the assay is SARS-CoV-2 M^pro (3CL^pro), MBP-tagged 3CL protease (Severe acute respiratory syndrome coronavirus 2, UniProt P0DTD1). The experiment in a line: biochemical.

For orientation: IC50 means the concentration at which inhibition is half-maximal. `O=C(O)c1cc(C(=O)O)c2c(n1)C(=O)C(=O)c1cc(C(=O)O)[nH]c1-2` [PQQ, 4,5-dioxo-4,5-dihydro-1H-pyrrolo[2,3-f] quinoline-2,7,9-tricarboxylic acid] came in with an IC50 of 2800 nM.

Source of the values: paper PMC10688161 (ACS Omega, 2023).
